US11680281B2, “Biosynthetic production of steviol glycosides and processes therefore” (Conagen Inc., priority 2016, dated 2023)

B1: CP1: circular permutation of UGT76G1 enzyme (SEQ ID NO: 3) (protein)
chain: MNWQILKEILGKMIKQTKASSGVIWNSFKELEESELETVIREIPAPSFLIPLPKHLTASSSSLLDHDRTVFQWLDQQPPSSVLYVSFGSTSEVDEKDFLEIARGLVDSKQSFLWVVRPGFVKGSTWVEPLPDGFLGERGRIVKWVPQQEVLAHGAIGAFWTHSGWNSTLESVCEGVPMIFSDFGLDQPLNARYMSDVLKVGVYLENGWERGEIANAIRRVMVDEEGEYIRQNARVLKQKADVSLMKGGSSYESLESLVSYISSLENKTETTVRRRRRIILFPVPFQGHINPILQLANVLYSKGFSITIFHTNFNKPKTSNYPHFTFRFILDNDPQDERISNLPTHGPLAGMRIPIINEHGADELRRELELLMLASEEDEEVSCLITDALWYFAQSVADSLNLRRLVLMTSSLFNFHAHVSLPQFDELGYLDPDDKTRLEEQASGFPMLKVKDIKSAYS
modifications: CP1 amino acid sequence

What was measured:
[1] = Sensory evaluation (taste test) of rebaudiosides against sucrose controls; type: in vivo; conditions: rebaudioside 300 ppm in bottled water, room temperature; vs 1.0%, 3.0%, 6.0% sucrose (w/v); panel of 13 volunteer human subjects
Protocol: A sensory evaluation of rebaudiosides was performed using sucrose as a control. The sucrose sample was purchased from Sigma-Aldrich and was used to prepared control samples at three different concentrations of 1.0%, 3.0%, and 6.0% sucrose in bottled water (w/v) at room temperature. The rebaudioside was prepared at 300 ppm for sensory evaluation by adding a corresponding mass into 1000 mL of bottled water. The mixture was stirred at room temperature and the steviol glycoside sample was then evaluated against several control sucrose samples at 1.0%, 3.0%, and 6.0% by a panel of 13 volunteer human subjects.

[2] = relative to table sugar (sucrose); cited from earlier work
[3] = In vitro conversion of Reb D4 to Reb M by recombinant UGT polypeptides, HPLC analysis; type: biochemical; conditions: 10 μg polypeptide, 1 mg/ml Reb D4, 1 mM UDP-glucose, 30° C., 30 min and 1 hr; compared with UGT76G1
Protocol: In this Example, to confirm the conversion of Reb D4 to rebaudioside M in vitro, the UGT76G1, CP1 and enzyme mutants were assayed using Reb D4 as the steviol glycoside substrate. The recombinant polypeptide (10 μg) was tested in a 200 μL in vitro reaction system. The reaction system contained 50 mM potassium phosphate buffer, pH 7.2, 3 mM MgCl2, 1 mg/ml steviol glycoside substrate, and 1 mM UDP-glucose. The reaction was performed at 30° C. and terminated by adding 200 μL of 1-butanol. The samples were extracted three times with 200 μL of 1-butanol. The pooled fraction was dried and dissolved in 70 μL of 80% methanol for high-performance liquid chromatography (HPLC) analysis. Rebaudioside D4 were used as substrate. HPLC analysis was performed using a Dionex UPLC ultimate 3000 system (Sunnyvale, Calif.), including a quaternary pump, a temperature controlled column compartment, an auto sampler and a UV absorbance detector. Synergi Hydro-RP column with guard column was used for the characterization of steviol glycosides. Acetonitrile in water was used for elution in HPLC analysis. The detection wavelength was 210 nm.

Row | Molecule | Fold increase in sweetness relative to sucrose [1] [fold] | also measured
1 | C=C1C[C@@]23CC[C@H]4[C@@](C)(CCC[C@@]4(C)C(=O)OC4OC(CO)C(O)C(OC5OC(CO)C(O)C(O)C5O)C4OC4OC(CO)C(O)C(O)C4O)[C@@H]2CC[C@]1(O)C3 (some centres unmarked) [Reb WB2] | 79 | –
2 | C=C1C[C@@]23CC[C@H]4[C@@](C)(CCC[C@@]4(C)C(=O)OC4OC(CO)C(O)C(OC5OC(CO)C(O)C(O)C5O)C4OC4OC(CO)C(O)C(O)C4O)[C@@H]2CC[C@]1(OC1OC(CO)C(O)C(O)C1OC1OC(CO)C(O)C(O)C1O)C3 (stereo partly drawn) [Reb D4, 13-[(2-O-β-D-glucopyranosyl-β-D-glucopyranosyl)oxy] ent-kaur-16-en-19-oic acid-[(2-O-β-D-glucopyranosyl-3-O-β-D-glucopyranosyl-β-D-glucopyranosyl) ester]] | 109 | –
3 | C=C1C[C@@]23CC[C@H]4[C@@](C)(CCC[C@@]4(C)C(=O)OC4OC(CO)C(O)C(OC5OC(CO)C(O)C(O)C5O)C4OC4OC(CO)C(O)C(O)C4O)[C@@H]2CC[C@]1(OC1OC(CO)C(O)C(O)C1O)C3 (some centres unmarked) [Reb WB1] | 133 | –
4 | C=C1C[C@@]23CC[C@H]4[C@@](C)(CCC[C@@]4(C)C(=O)O[C@@H]4O[C@H](CO)[C@@H](O)[C@H](O)[C@H]4O)[C@@H]2CC[C@]1(O[C@@H]1O[C@H](CO)[C@@H](O)[C@H](O)[C@H]1O[C@@H]1O[C@H](CO)[C@@H](O)[C@H](O)[C@H]1O)C3 [stevioside] | – | sweetness relative to sucrose (times sweeter than sucrose) [2]: 100-150 times
5 | B1 | – | enzymatic activity, transfer of one glucose to Reb D4 to form Reb M [3]: significantly higher enzymatic activity than UGT76G1
